This passage reports IC50 results from patent US12338262B2 (Forward Therapeutics, Inc., priority 2022, dated 2025).

As usually defined, the pIC50 is −log10 of the IC50, conventionally taken in molar units.

pIC50: −log10 of the molar value.

TNF-α, sequence (P01375 77-233 limits assumed): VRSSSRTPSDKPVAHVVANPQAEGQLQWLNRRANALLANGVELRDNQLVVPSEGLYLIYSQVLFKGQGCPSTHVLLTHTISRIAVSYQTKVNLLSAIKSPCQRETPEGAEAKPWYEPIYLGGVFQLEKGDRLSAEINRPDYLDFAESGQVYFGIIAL

This assay deals with TNF-α (Homo sapiens, UniProt P01375). Briefly: TNF-α Induced HEK Blue Cellular Assay. The format is cell-based. Conditions: HEK Blue TNFα reporter cells, TNF-α 100 pg/ml, 24 hrs at 37° C., secreted alkaline phosphatase (QUANTI-Blue, 620 nm). As to the method:
TNF-α Induced HEK Bluet Cellular Assay
Test articles were diluted in DMSO and serially diluted into 384 well assay plate (Corning 3765), at final concentrations ranging from […] to 0.5 nM. HEK Blue™ TNFα reporter cells were added at a final density of 10,000 cell per well in assay media [DMEM (Gibco, cat #21063-029), 10% fetal bovine serum (ExcelBio, cat #FND500), 1% Penicillin-Streptomycin (Solarbio, cat #P1400-100]. TNF-α (R&D 210-TA-020/CF) was then added to the assay plate at a final concentration of 100 pg/ml. This plate was then incubated for 24 hrs at 37° C. and 5% CO2. Secreted alkaline phosphatase expression was then measured using QUANTI-Blue™ (Invivogen), according to manufacturer instructions and read on an Envision microplate reader at 620 nm.
Inhibition data for test compound over a range of concentration was plotted as percentage inhibition of the test compound (100%=maximum inhibition). IC50 values were determined after correcting for background [(sample read-mean of low control)/(mean of high control-mean of low control)] where by the low control is DMSO without stimulation and high control is DMSO with stimulation. The IC50 is defined as the concentration of test compound which produces 50% inhibition and was quantified using the 4 parameter logistic equation to fit the data.
In turn, `Cc1nc2cc(F)c(-c3cnc(P(C)(C)=O)c(F)c3)cc2c(N[C@H](C)c2cc(F)cc(F)c2)c1Cl` [Example 129, 3-chloro-N-[(1R)-1-(3,5-difluorophenyl)ethyl]-6-[6-(dimethylphosphoryl)-5-fluoropyridin-3-yl]-7-fluoro-2-methylquinolin-4-amine] gave a pIC50 of 4.52 to 5.00.

For `Cc1nc2cc(F)c(-c3ccc(P(C)(C)=O)nc3)nc2c(N[C@H](c2cccc(F)c2F)C(F)F)c1Cl` [Example 146, (R)-(5-(7-chloro-8-((1-(2,3-difluorophenyl)-2,2-difluoroethyl)amino)-3-fluoro-6-methyl-1,5-naphthyridin-2-yl)pyridin-2-yl)dimethylphosphine oxide], the negative logarithm of the IC50 (pIC50) is 5.00 to 6.00.

On to `Cc1nc2cc(F)c(-c3ccc(P(C)(C)=O)nc3)nc2c(N[C@@H](c2ccccc2)C2CC2)c1Cl` [Example 137, 3-chloro-N—[(R)-cyclopropyl(phenyl)methyl]-6-[6-(dimethylphosphoryl)pyridin-3-yl]-7-fluoro-2-methyl-1,5-naphthyridin-4-amine], for which the pIC50 is no less than 6.00.

`C[C@@H](Nc1c(Cl)cnc2cc(F)c(-c3cnc(P(C)(C)=O)nc3)cc12)c1cc(C#N)ccc1F` [Example 12, 3-[(1R)-1-({3-chloro-6-[2-(dimethylphosphoryl)pyrimidin-5-yl]-7-fluoroquinolin-4-yl}amino)ethyl]-4-fluorobenzonitrile] gave a pIC50 of no less than 6.00.

On to `Cc1nc2cc(F)c(-c3cnc(P(C)(C)=O)nc3)nc2c(N[C@@H](c2ccccc2F)C(F)(F)F)c1Cl` [Example 71, 3-chloro-6-[2-(dimethylphosphoryl)pyrimidin-5-yl]-7-fluoro-2-methyl-N-[(1S)-2,2,2-trifluoro-1-(2-fluorophenyl)ethyl]-1,5-naphthyridin-4-amine], for which the negative-log IC50 (pIC50) is no less than 6.00.

As to `CC[C@@H](Nc1c(Cl)c(C)nc2cc(F)c(-c3ccc(P(C)(C)=O)nc3)cc12)c1ncccc1F` [Example 102, 3-chloro-6-[6-(dimethylphosphoryl)pyridin-3-yl]-7-fluoro-N-[(1R)-1-(3-fluoropyridin-2-yl)propyl]-2-methylquinolin-4-amine], the pIC50 is no less than 6.00.

Consider `COP(=O)(O)c1ccc(-c2nc3c(N[C@H](C)c4cc(C#N)ccc4F)c(Cl)c(C)nc3cc2F)cn1` [Example 21, ammonium methyl 5-(7-chloro-8-{[(1R)-1-(5-cyano-2-fluorophenyl)ethyl]amino}-3-fluoro-6-methyl-1,5-naphthyridin-2-yl)pyridin-2-ylphosphonate], for which the negative-log IC50 (pIC50) was no less than 6.00.

`Cc1nc2cc(F)c(-c3cnc(P(C)(C)=O)c(F)c3)cc2c(N[C@H](C)c2cccc(F)c2F)c1Cl` [Example 135, 3-chloro-N-[(1R)-1-(2,3-difluorophenyl)ethyl]-6-[6-(dimethylphosphoryl)-5-fluoropyridin-3-yl]-7-fluoro-2-methylquinolin-4-amine] had a pIC50 of no less than 7.00.

Regarding `Cc1nc2cc(F)c(-c3ccc(P(C)(C)=O)nc3)nc2c(N[C@H](C)c2cccc(C#N)c2)c1Cl` [Example 43, 3-[(1R)-1-({3-chloro-6-[6-(dimethylphosphoryl)pyridin-3-yl]-7-fluoro-2-methyl-1,5-naphthyridin-4-yl}amino)ethyl]benzonitrile], the pIC50 was no less than 7.00.

In turn, `CC[P@@](C)(=O)c1ccc(-c2nc3c(N[C@H](C)c4cc(C#N)ccc4F)c(Cl)c(C)nc3cc2F)cn1` [Example 57] showed a pIC50 of no less than 7.00.

In turn, `CC[C@@H](Nc1c(Cl)c(C)nc2cc(F)c(-c3ccc(P(C)(C)=O)nc3)nc12)c1ccccc1` [Example 79, 3-chloro-6-[6-(dimethylphosphoryl)pyridin-3-yl]-7-fluoro-2-methyl-N-[(1R)-1-phenylpropyl]-1,5-naphthyridin-4-amine] gave a negative-log IC50 (pIC50) of no less than 7.00.

Take `Cc1nc2cc(F)c(-c3ccc(P(C)(C)=O)nc3)nc2c(N[C@H](C)c2cccc(F)c2)c1Cl` [Example 86, 3-chloro-6-[6-(dimethylphosphoryl)pyridin-3-yl]-7-fluoro-N-[(1R)-1-(3-fluorophenyl)ethyl]-2-methyl-1,5-naphthyridin-4-amine]: the pIC50 is no less than 7.00.

Regarding `Cc1nc2cc(F)c(N3CCC(P(C)(C)=O)CC3)nc2c(N[C@H](C)c2cc(C#N)ccc2F)c1Cl` [Example 31, 3-[(1R)-1-({3-chloro-6-[4-(dimethylphosphoryl)piperidin-1-yl]-7-fluoro-2-methyl-1,5-naphthyridin-4-yl}amino)ethyl]-4-fluorobenzonitrile], the pIC50 was no less than 7.00.

Take `CC[C@@H](Nc1c(Cl)c(C)nc2cc(F)c(-c3cnc(OCP(C)(C)=O)nc3)nc12)c1cccc(F)c1F` [Example 125, 3-chloro-N-[(1R)-1-(2,3-difluorophenyl)propyl]-6-{2-[(dimethylphosphoryl)methoxy]pyrimidin-5-yl}-7-fluoro-2-methyl-1,5-naphthyridin-4-amine]: the pIC50 is no less than 6.00.

As for `Cc1nc2cc(F)c(-c3ccc(P(C)(C)=O)nc3)nc2c(N[C@H](CO)c2cc(C#N)ccc2F)c1Cl` (single isomer, unassigned) [Example 63], the pIC50 was 4.52 to 5.00.

`CC[C@H](Nc1c(Cl)c(C)nc2cc(F)c(-c3ccc(P(C)(C)=O)nc3)nc12)c1cc(C#N)ccc1F` [Example 44, 3-[(1S)-1-({3-chloro-6-[6-(dimethylphosphoryl)pyridin-3-yl]-7-fluoro-2-methyl-1,5-naphthyridin-4-yl}amino)propyl]-4-fluorobenzonitrile] had a negative logarithm of the IC50 (pIC50) of no less than 7.00.

On to `Cc1nc2cc(F)c(-c3ccc(P(C)(C)=O)nc3)nc2c(N[C@H](C)c2ccccc2)c1Cl` [Example 90, 3-chloro-6-[6-(dimethylphosphoryl)pyridin-3-yl]-7-fluoro-2-methyl-N-[(1R)-1-phenylethyl]-1,5-naphthyridin-4-amine], for which the pIC50 is no less than 7.00.

Turning to `Cc1nc2cc(F)c(-c3ccc(P(C)(C)=O)cc3)nc2c(N[C@H](C)c2cc(C#N)ccc2F)c1Cl` [Example 3, 3-[(1R)-1-({3-chloro-6-[4-(dimethylphosphoryl)phenyl]-7-fluoro-2-methyl-1,5-naphthyridin-4-yl}amino)ethyl]-4-fluorobenzonitrile], the pIC50 is no less than 7.00.

Take `Cc1nc2cc(F)c(-c3cnc(P4(=O)CCCC4)nc3)nc2c(N[C@H](C)c2cc(C#N)ccc2F)c1Cl` [Example 49, 3-[(1R)-1-({3-chloro-7-fluoro-2-methyl-6-[2-(1-oxo-1lambda5-phospholan-1-yl)pyrimidin-5-yl]-1,5-naphthyridin-4-yl}amino)ethyl]-4-fluorobenzonitrile]: the pIC50 is no less than 7.00.

`CC[C@H](Nc1c(Cl)c(C)nc2cc(F)c(-c3cnc(OCP(C)(C)=O)nc3)nc12)c1cccc(F)c1F` [Example 126, 3-chloro-N-[(1S)-1-(2,3-difluorophenyl)propyl]-6-{2-[(dimethylphosphoryl)methoxy]pyrimidin-5-yl}-7-fluoro-2-methyl-1,5-naphthyridin-4-amine] gave a pIC50 of no less than 7.00.

`CC[C@@H](Nc1c(Cl)c(C)nc2cc(F)c(-c3ccc(P(C)(C)=O)nc3)nc12)c1cc(F)cc(F)c1` [Example 147, 3-chloro-N-[(1R)-1-(3,5-difluorophenyl)propyl]-6-[6-(dimethylphosphoryl)pyridin-3-yl]-7-fluoro-2-methyl-1,5-naphthyridin-4-amine] showed a negative logarithm of the IC50 (pIC50) of 5.00 to 6.00.

In the case of `Cc1nc2cc(F)c(-c3cnc(P(C)(C)=O)c(F)c3)nc2c(N[C@H](C)c2cc(F)cc(F)c2)c1Cl` [Example 128, 3-chloro-N-[(1R)-1-(3,5-difluorophenyl)ethyl]-6-[6-(dimethylphosphoryl)-5-fluoropyridin-3-yl]-7-fluoro-2-methyl-1,5-naphthyridin-4-amine], the negative-log IC50 (pIC50) is 4.52 to 5.00.

`Cc1nc2cc(F)c(-c3ccc(P(C)(C)=O)nc3)nc2c(N[C@@H](c2cc(F)cc(F)c2)C2CC2)c1Cl` [Example 138, 3-chloro-N—[(R)-cyclopropyl(3,5-difluorophenyl)methyl]-6-[6-(dimethylphosphoryl)pyridin-3-yl]-7-fluoro-2-methyl-1,5-naphthyridin-4-amine] showed a pIC50 of no less than 6.00.

The compound `Cc1nc2cc(F)c(-c3ccc(P(C)(C)=O)nc3)c(F)c2c(NC(C)c2ncccc2F)c1Cl` (stereo not drawn) [Example 97, 3-chloro-6-[6-(dimethylphosphoryl)pyridin-3-yl]-5,7-difluoro-N-[1-(3-fluoropyridin-2-yl)ethyl]-2-methylquinolin-4-amine] gave a negative logarithm of the IC50 (pIC50) of no less than 6.00.

`Cc1nc2cc(F)c(-c3ccc(P(C)(C)=O)nc3)nc2c(NC(c2cccc(F)c2F)C(C)(F)F)c1Cl` (stereo not drawn) [Example 142, 3-chloro-N-[1-(2,3-difluorophenyl)-2,2-difluoropropyl]-6-[6-(dimethylphosphoryl)pyridin-3-yl]-7-fluoro-2-methyl-1,5-naphthyridin-4-amine]: the negative-log IC50 (pIC50) is 5.00 to 6.00.

`Cc1nc2cc(F)c(-c3ccc(P(C)(C)=O)nc3)nc2c(N[C@H](C)c2cccc(C(F)(F)F)c2)c1Cl` [Example 93, 3-chloro-6-[6-(dimethylphosphoryl)pyridin-3-yl]-7-fluoro-2-methyl-N-[(1R)-1-[3-(trifluoromethyl)phenyl]ethyl]-1,5-naphthyridin-4-amine] showed a pIC50 of no less than 7.00.

The compound `CC[C@@H](Nc1c(Cl)c(C)nc2cc(F)c(-c3ccc(P(C)(C)=O)nc3)nc12)c1ncccc1F` [Example 69, (R)-(5-(7-chloro-3-fluoro-8-((1-(3-fluoropyridin-2-yl)propyl)amino)-6-methyl-1,5-naphthyridin-2-yl)pyridin-2-yl)dimethylphosphine oxide] gave a pIC50 of no less than 6.00.
